The values that follow come from EP1228058B1, “BENZOPYRANYL GUANIDINE DERIVATIVES, PROCESS FOR PREPARATION THEREOF, AND PHARMACEUTICAL COMPOSITIONS CONTAINING THEM” (Dongbu Hannong Chemical Co., Ltd., priority 1999, dated 2001).

One series has as its system rat brain homogenate. Put plainly: Inhibition of iron-induced lipid peroxidation (MDA quantification). Format: biochemical. As to conditions: 100 uM; FeCl2 400 uM, 37 °C, 30 min. How it is done: The rat brain was homogenized in a Krebs buffer (15 mM HEPES, 10 mM glucose, 140 mM NaCl, 3.6 mM KCl, 1.5 mM CaCl2, 1.4 mM KH2PO4, 0.7 mM MgCl2, pH 7.4) and the supernatant separated by centrifugation at 12,000 rpm for 10 min. was used for further experiments. FeCl2 was added to a final concentration of 400 uM in the brain homogenate which was then allowed to stand at 37 °C for 30 min. for the facilitation of oxidation. Each of the test compounds was added at a concentration of 100 uM and vehicle was used as a control.
Iron facilitates the oxidation of the brain homogenate to produce malondialdehyde (MDA), a lipid peroxidation product. Thus, the lipid peroxidation was determined by MDA quantification. The inhibitory effect of the test compounds against the lipid peroxidation was evaluated by calculating MDA reduction rate of the test compounds compared with that of the control group.
Typically, the MDA quantification is achieved by reacting samples with 2-thiobarbituric acid (TBA) and measuring the absorbance at 530 nm. However, this method is unsuitable to treat samples on a large scale because of a boiling step. Thus, in this experiment, N-methyl-2-phenylindole was used instead of TBA. […] Bioxytech^R LPO-586 Kit was used for MDA quantification.

A further series relates to rat aorta. The series can be described thus: Vasodilation effects on isolated blood vessels of rats (methoxamine-constricted aortic rings). Format: cell-based. The settings on record: isolated rat aorta constricted with methoxamine (3 uM); read-out: Vasodilation Activity (in Vitro, rat aorta) (IC50).
Series [1] is described as follows: Acute oral toxicity test in rats. As to conditions: rat, in vivo, single oral dose in 0.5% methyl cellulose, read-out: lethal dose (LD50) for oral administration. Summed up: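 Six-week-old SPF SD rats, two per group, received a single oral dose of 1 g/kg suspended in 0.5% methyl cellulose (10 ml/kg). Survivors at the end of observation underwent haematology, serum chemistry, necropsy and histopathology of vital organs with macroscopic lesions.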

The subject of a further series is HUVEC. Put plainly: Inhibition of HUVEC tube formation on Matrigel. Further details: key: -: no effect; +/-: week effect; +: moderate effect; ++: strong effect. Format: cell-based, Human. How it is done: HUVEC (Human umbilical vein endothelial cells, ATCC CRL-1730) were cultured, and tubulogenesis was induced in vascular endothelial cells by plating them onto the surface of Matrigel for several hours. The effects on tube formation of the test compounds were compared with the vehicle treated controls, then confirmed their in vitro anti-angiogenic effect indirectly.

The test system of the next series is A7r5. Put plainly: Inhibition of intracellular ROS induced by H2O2 (H2DCFDA) in A7r5. The settings on record: Rattus norvegicus. Format: cell-based. How it is done: Measurement of intracellular ROS (Reactive Oxygen Species) was determined using H2DCFDA (2',7'-dichlorodihydrofluorescein diacetate, Molecular Probes, Eugene, OR, USA). H2DCFDA is a non-polar compound that readily diffused into cells, where it is hydrolyzed by intracellular esterase to polar derivative H2DCF (2',7'-dichlorodihydrofluorescein) which can not cross the cell membrane, and thereby trapped within the cell. H2DCF is low-fluorescent, but converted to high-fluorescent DCF (2',7'-dichlorofluorescein) by intracellular ROS. Therefore, the intracellular ROS formation can be determined from the amount of converted DCF. HUVEC (Human umbilical Vascular Endothelial Cells) or A7r5 (Rat thoracic aorta smooth muscle cells) were used. HUVEC were cultured in Kaighn's F12K medium supplemented with 10% heat-inactivated FBS, 0.1 mg/ml heparin sodium, 0.03-0.05 mg/ml ECGS (Endothelial cell growth supplement) and 1% antibiotics, and A7r5 were cultured in DMEM supplemented with 10% heat inactivated FBS and 1% antibiotics. To measure the intracellular ROS, HUVEC or A7r5 were preincubated for 30 min in the presence of test compounds (10^-7-10^-5 M). Thereafter, cells were stimulated with H2O2 (10^-6 and 10^-5 M for 20 min), and then incubated in the dark for 2 hr at 37 °C in 50 mM phosphate buffer (pH 7.4) containing 5 uM H2DCFDA. The quantity of DCF fluorescence (485 nm excitation, 530 nm emission) was measured using Fluorescence plate reader (FL600, Biotek Instruments).

Molecules are shown by their SMILES.

As usually defined, the % Inhibition is the change of the read-out against control, counted positive when it falls. What is called IC50 is the concentration that inhibits the measured activity by half. As for `COC(OC)[C@@]1(C)Oc2ccc([N+](=O)[O-])cc2[C@H](NC(=NC#N)Nc2ccccc2Cl)[C@H]1O` [Example 32, (2S, 3R, 4S)-N''-cyano-N-(6-nitro-3,4-dihydro-3-hydroxy-2-methyl-2-dimethoxymethyl-2H-benzopyran-4-yl)-N'-(2-chlorophenyl)guanidine], the “% Inhibition” value in the series on rat brain homogenate came out at 86%. In the series on rat aorta, the IC50 was found to be 3.57 µM. Moreover, the LD50 in series [1] was greater than 1000 mg/kg.
`COC(OC)[C@@]1(C)Oc2ccc([N+](=O)[O-])cc2[C@@H](NC(=NC#N)NCc2ccccc2)[C@@H]1OC(C)=O` [Example 38, (2S, 3S, 4R)-N''-cyano-N-(6-nitro-3,4-dihydro-3-acetoxy-2-methyl-2-dimethoxymethyl-2H-benzopyran-4-yl)-N'-benzylguanidine]: the “% Inhibition” value in the series with rat brain homogenate is 4%. Besides, in the series with rat aorta, the IC50 is 24.5 µM. In series [1], the LD50 is greater than 1000 mg/kg.
Turning to `COC(OC)[C@@]1(C)Oc2ccc(N)cc2[C@@H](NC(=NC#N)NCc2ccccc2)[C@@H]1O` [Example 40, (2S, 3S, 4R)-N''-cyano-N-(6 - amino-3,4-dihydro-3-hydroxy-2-methyl-2-dimethoxymethyl-2H-benzopyran-4-yl)-N'-benzylguanidine], in the series with rat brain homogenate, the “% Inhibition” value is 79%. Also, in the series on rat aorta, the IC50 was greater than 30 µM. The LD50 in series [1] was greater than 1000 mg/kg. Moreover, the “Inhibitory Effects on Tube Formation” value with HUVEC (10 uM) was “+”; in the series on HUVEC (100 uM), “++”.
One may read the inhibition as the change of the read-out against control, counted positive when it falls. As to `COC(OC)[C@@]1(C)Oc2ccc([N+](=O)[O-])cc2[C@H](NC(=NC#N)NCc2ccccc2)[C@H]1O` [Example 24, (2S, 3R, 4S)-N''-cyano-N-(6-nitro-3,4-dihydro-3-hydroxy-2-methyl-2-dimethoxymethyl-2H-benzopyran-4-yl)-N'-benzylguanidine], the “% Inhibition” value with rat brain homogenate worked out at 12%. Moreover, the IC50 in the series on rat aorta is 9.78 µM. In addition, in series [1], the LD50 is greater than 1000 mg/kg. Besides, the inhibition at 10 µM in the series with A7r5 (A7r5, Conc. 10^-5 M, read-out: Inhibition (%) H2O2 (10^-6M)) worked out at 185%. In the series with A7r5 (A7r5, Conc. 10^-6 M), the inhibition at 1 µM came out at 111%. The inhibition at 0.1 µM with A7r5 (A7r5, Conc. 10^-7 M, read-out: Inhibition (%) H2O2 (10^-6M)) amounted to 72%. Moreover, the “Inhibitory Effects on Tube Formation” value in the series with HUVEC (100 uM) is “+”.
In the case of `COC(OC)[C@@]1(C)Oc2ccc([N+](=O)[O-])cc2[C@@H](NC(=NC#N)NCc2ccccc2)[C@@H]1O` [Example 25, (2S, 3S, 4R)-N''-cyano-N-(6-nitro-3,4-dihydro-3-hydroxy-2-methyl-2-dimethoxymethyl-2H-benzopyran-4-yl)-N'-benzylguanidine], the “% Inhibition” value in the series with rat brain homogenate stood at 2%. Also, the IC50 in the series with rat aorta is greater than 30 µM. Besides, the LD50 in series [1] was greater than 1000 mg/kg.
